Legend:
Assay type in all cases: in vivo
Conditions in all cases: 500 g/h, evaluated after 13 days
[1] = test system: Ipomoea hederacea (IPOHE); assay: Pre-emergence herbicidal glasshouse test, Ipomoea hederacea (IPOHE)
Method: (§1) Seeds of a variety of test species are sown in standard soil in pots (Lolium perenne (LOLPE), Amaranthus retoflexus (AMARE), Abutilon theophrasti (ABUTH), Setaria faberi (SETFA), Echinochloa crus-galli (ECHCG), Ipomoea hederacea (IPOHE)). After cultivation for one day (pre-emergence) or after 8 days cultivation (post-emergence) under controlled conditions in a glasshouse (at 24/16° C., day/night; 14 hours light; 65% humidity), the plants are sprayed with an aqueous spray solution derived from the formulation of the technical active ingredient in acetone/water (50:50) solution containing 0.5% Tween 20 (polyoxyethelyene sorbitan monolaurate, CAS RN 9005-64-5). Compounds are applied at 500 g/h unless otherwise indicated. The test plants are then grown in a glasshouse under controlled conditions in a glasshouse (at 24/16° C., day/night; 14 hours light; 65% humidity) and watered twice daily. After 13 days for pre and post-emergence, the test is evaluated for the percentage damage caused to the plant. The biological activities are shown in the following table on a five point scale (5=80-100%; 4=60-79%; 3=40-59%; 2=20-39%; 1=0-19%).

[2] = test system: Echinochloa crus-galli (ECHCG); assay: Post-emergence herbicidal glasshouse test, Echinochloa crus-galli (ECHCG)
Method: as §1

[3] = test system: Echinochloa crus-galli (ECHCG); assay: Pre-emergence herbicidal glasshouse test, Echinochloa crus-galli (ECHCG)
Method: as §1

[4] = test system: Amaranthus retoflexus (AMARE); assay: Post-emergence herbicidal glasshouse test, Amaranthus retoflexus (AMARE)
Method: as §1

[5] = test system: Abutilon theophrasti (ABUTH); assay: Post-emergence herbicidal glasshouse test, Abutilon theophrasti (ABUTH)
Method: as §1

[6] = test system: Amaranthus retoflexus (AMARE); assay: Pre-emergence herbicidal glasshouse test, Amaranthus retoflexus (AMARE)
Method: as §1

Setaria faberi (SETFA) [7] = assay: Post-emergence herbicidal glasshouse test, Setaria faberi (SETFA)
Method: as §1

[8] = test system: Ipomoea hederacea (IPOHE); assay: Post-emergence herbicidal glasshouse test, Ipomoea hederacea (IPOHE)
Method: as §1

Setaria faberi (SETFA) [9] = assay: Pre-emergence herbicidal glasshouse test, Setaria faberi (SETFA)
Method: as §1

[10] = test system: Abutilon theophrasti (ABUTH); assay: Pre-emergence herbicidal glasshouse test, Abutilon theophrasti (ABUTH)
Method: as §1

Compound	PRE Application IPOHE, percentage damage (five point scale) [1]	POST Application ECHCG, percentage damage (five point scale) [2]	PRE Application ECHCG, percentage damage (five point scale) [3]	POST Application AMARE, percentage damage (five point scale) [4]	POST Application ABUTH, percentage damage (five point scale) [5]	PRE Application AMARE, percentage damage (five point scale) [6]	POST Application SETFA, percentage damage (five point scale) (Setaria faberi (SETFA) [7])	POST Application IPOHE, percentage damage (five point scale) [8]	PRE Application SETFA, percentage damage (five point scale) (Setaria faberi (SETFA) [9])	PRE Application ABUTH, percentage damage (five point scale) [10]
Cc1nnc(NC(=O)c2ccc(C(F)(F)F)c(N=CN(C)C)c2C)o1 [Compound 2.017]	5 (5=80-100%)	5 (5=80-100%)	5 (5=80-100%)	5 (5=80-100%)	4 (4=60-79%)	5 (5=80-100%)	5 (5=80-100%)	4 (4=60-79%)	4 (4=60-79%)	5 (5=80-100%)
Cc1nnc(NC(=O)c2ccc(S(C)(=O)=O)c(N=CN(C)C)c2C)o1 [Compound 2.025]	3 (3=40-59%)	5 (5=80-100%)	5 (5=80-100%)	5 (5=80-100%)	5 (5=80-100%)	5 (5=80-100%)	5 (5=80-100%)	5 (5=80-100%)	5 (5=80-100%)	5 (5=80-100%)
CCN(C)C=Nc1c(S(C)(=O)=O)ccc(C(=O)Nc2nnc(C)o2)c1C [Compound 2.027]	4 (4=60-79%)	5 (5=80-100%)	5 (5=80-100%)	5 (5=80-100%)	5 (5=80-100%)	5 (5=80-100%)	5 (5=80-100%)	5 (5=80-100%)	5 (5=80-100%)	5 (5=80-100%)
CCN(C=Nc1c(S(C)(=O)=O)ccc(C(=O)Nc2nnc(C)o2)c1C)CC [Compound 2.031]	4 (4=60-79%)	5 (5=80-100%)	5 (5=80-100%)	5 (5=80-100%)	5 (5=80-100%)	5 (5=80-100%)	5 (5=80-100%)	4 (4=60-79%)	5 (5=80-100%)	4 (4=60-79%)
Cc1nnc(NC(=O)c2ccc(C(F)(F)F)c(/N=C/N(C)C)c2Cl)o1 [Compound 2.049, 2-chloro-3-[(E)-dimethylaminomethyleneamino]-N-(5-methyl-1,3,4-oxadiazol-2-yl)-4-(trifluoromethyl)benzamide]	5 (5=80-100%)	5 (5=80-100%)	5 (5=80-100%)	5 (5=80-100%)	5 (5=80-100%)	5 (5=80-100%)	5 (5=80-100%)	5 (5=80-100%)	5 (5=80-100%)	5 (5=80-100%)
CCN(C=Nc1c(C(F)(F)F)ccc(C(=O)Nc2nnc(C)o2)c1Cl)CC [Compound 2.055]	5 (5=80-100%)	5 (5=80-100%)	5 (5=80-100%)	5 (5=80-100%)	4 (4=60-79%)	5 (5=80-100%)	5 (5=80-100%)	4 (4=60-79%)	5 (5=80-100%)	5 (5=80-100%)
CC(=NOCc1c(S(C)(=O)=O)ccc(C(=O)Nc2nnc(C)o2)c1Cl)N(C)C [Compound 2.129]	2 (2=20-39%)	5 (5=80-100%)	3 (3=40-59%)	5 (5=80-100%)	5 (5=80-100%)	5 (5=80-100%)	5 (5=80-100%)	5 (5=80-100%)	3 (3=40-59%)	5 (5=80-100%)
Cc1nnc(NC(=O)c2ccc(C(F)(F)F)c(N=CN(C)c3ccccc3)c2Cl)o1 [Compound 2.131]	2 (2=20-39%)	5 (5=80-100%)	5 (5=80-100%)	5 (5=80-100%)	4 (4=60-79%)	5 (5=80-100%)	5 (5=80-100%)	3 (3=40-59%)	5 (5=80-100%)	3 (3=40-59%)

From patent US11272709B2, “Amidine substituted benzoyl derivatives useful as herbicides” (Syngenta Participations AG, priority 2018, dated 2022)
